The values that follow come from publication PMC11650638, “In Vivo Activity Profiling of Biosynthetic Darobactin D22 against Critical Gram-Negative Pathogens” (ACS Infectious Diseases, 2024).

One data set has as its system Acinetobacter baumannii. The data set is described as follows: MIC50/MIC90 determination and MIC against isolates of A. baumannii. Format: cell-based. The note with it: Acinetobacter baumannii, read-out: MIC.
Data set [1] concerns Pseudomonas aeruginosa PAO1. Nature of the data set: Murine neutropenic thigh infection model. It counts as in vivo, CD-1 mice. The note with it: 8 h, 20 mg/kg. The method, then: Zg, Committee on Animal Research Ethics-Zagreb) in collaboration with the Croatian Competent Authority and the National Ethics Committee, granting this project a 5-year authorisation, in compliance […]
Animals: The study was performed in male, 6–7 weeks old C57BL/6 mice. Animals were housed in a temperature-controlled room (22±2°C), relative humidity 55±10%, 15–20 air changes per hour, atrificial […]
Sampling: Serial or terminal blood samples were collected into EDTA-coated tubes at the following […]
into Precellys® tubes for all animals. Additional, terminal tissue samples were taken at 1 h for the IV and IP groups. For the SC and IT groups, terminal tissue samples were further taken at 2, 4, 8 h. Urine […]
samples (3 animals) were collected into emtpy tubes and kept chilled, followed by centrifugation at 3000 rpm, 10 min, 4°C. Total urine volume was recorded. […]
(§1) reduce stress and harm arising from experimental procedures, including use of analgesia, access to wet food and additional bedding. The room temperature, relative humidity and maximum background noise were maintained according to Home Office Code of Practice. Mice were exposed to 12-hour light/dark […]
(§2) Mice were immunosuppressed using cyclophosphamide administered subcutaneously (SC) at 150 mg/kg on day minus 4 and at 100 mg/kg on day minus 1 relative to the day of infection. Following […]

A further data set relates to Klebsiella pneumoniae. The data set is described as follows: MIC50/MIC90 determination and MIC against isolates of K. pneumoniae. Format: cell-based. The conditions noted are these: Klebsiella pneumoniae.
A further data set has as its system Pseudomonas aeruginosa. The data set is described as follows: MIC50/MIC90 determination and MIC against isolates of P. aeruginosa. Format: cell-based. The note with it: Pseudomonas aeruginosa, read-out: MIC.
The next data set relates to Escherichia coli. Nature of the data set: MIC50/MIC90 determination and MIC against isolates of E. coli. It counts as cell-based. The conditions noted are these: Escherichia coli.
For data set [2], the system named is Pseudomonas aeruginosa PAO1. More on the design: method as in PMID 36308277, PMID 38093695. The note with it: cited from earlier work.
The subject of data set [3] is Acinetobacter baumannii DSM30008. More on the design: method as in PMID 36308277, PMID 38093695. The note with it: cited from earlier work.
The test system of data set [4] is Escherichia coli ATCC25922. More on the design: method as in PMID 36308277, PMID 38093695. The note with it: cited from earlier work.
Data set [5] deals with Acinetobacter baumannii ATCC17978. The data set is described as follows: Zebrafish embryo model of A. baumannii infection. The note with it: 10 mg/kg, caudal vein microinjection 3 hpi.
The test system is the same in data set [6]. The data set is described as follows: microbe, parasite or virus in culture. It counts as cell-based. The method, then:
(§3) MIC90 determination was performed
(§4) MIC against Clinical Isolates of E. coli.
(§5) Zebrafish Infection Model
(§6) carbenicillin (Carl Roth, Karlsruhe, Germany).3
(§7) Minimum inhibitory concentrations

For another data set, the system named is Escherichia coli C175-94. Nature of the data set: Murine urinary tract infection model. Format: in vivo, C3H/HeNHsd mice. The note with it: positive control, BID, day 4. As for the experimental part:
One IV dosing arm at 5 mg/kg was included for comparison. Mice were treated for 3 days post-inoculation, and the bacterial burden was determined on day 4.
In vivo urinary tract infection model. The murine urinary tract infection model was conducted at Statens Serum Institut in Copenhagen, Denmark under the supervision of the Danish Animal Ethical […]
Bacterial challenge organism: The challenge organism was Escherichia coli C175-94 (serotype O8:K48:H4), a clinical isolate elaborating type 1 fimbriae, previously used for developing and validating the urinary tract infecti on model.7
Animals: Upon arrival to Statens Serum Institut animal facility, female C3H/HeNHsd mice 5 -6 weeks old (Envigo, Netherlands), were randomized to 8 mice per cage and acclimatized 1 week before experimental start. Bedding was from Tapvei and Enviro -Dri nesting material and cardboard houses (Bio-serv) was offered as enrichment. Mice had free access to domestic quality drinking water and food […]
Mice were monitored twice daily for clinical symptoms of infection or discomfort and euthanized if reaching humane endpoints specified in the ethical permission […]
Dickinson, cat. […] Colony counts of urine were determined immediately. […]
OD540nm of the supernatant was measured and the hemolytic % was calculated following the formula: (OD test compound – OD blank)-(OD positive

Data set [7] concerns Escherichia coli clinical isolates. The data set is described as follows: MIC against clinical isolates of E. coli (Statens Serum Institut, CLSI). It counts as cell-based. The method, then: as §3, §4, §5, §6, §7
Another data set concerns Escherichia coli 106-09. Nature of the data set: Murine peritonitis/sepsis model. Format: in vivo, CD-1 female mice. The conditions noted are these: 40 mg/kg SC q6h. The method, then:
Mice were infected IP (Figure S7). […]
as §1, §2
CFU/thigh P. aeruginosa PAO1 by intramuscular (IM) injection of 50 µL bacterial suspension into both thighs. Following infection, a single dose of carprofen was administered SC to provide pain relief.
One hour post-inoculation, one group of mice were euthanized to quantify the pre-treatment bacterial burden. […]
At eight or 25 hours post infection, mice were euthanized by overdose of pentobarbitone and death confirmed by cervical dislocation. […] The bacterial burden was quantified following overnight incubation of agar plates at 37°C. For analytical purposes, burdens from individual thighs were counted as independent […]
intravenously. Mice were observed during the study and scored 0 – 4 based on their behavior and clinical signs of discomfort and euthanized at the humane endpoint as a surrogate marker for death. […]

Values after ≈ are worked out from the molar mass of the structure shown. Like-named read-outs stand apart in the source and are kept apart here.

Turning to `O=C(O)c1cn(C2CC2)c2cc(N3CCNCC3)c(F)cc2c1=O` [Ciprofloxacin, ciprofloxacin], the MIC in the data set with Acinetobacter baumannii (ATCC17978, isolate ATCC17978) is 0.5 µg/mL (≈ 1.51 µM); in the data set with Acinetobacter baumannii (ATCC19187, isolate ATCC19187) it was 0.5 µg/mL (≈ 1.51 µM); in the data set on Acinetobacter baumannii (ATCC51432, isolate ATCC51432), 16 µg/mL (≈ 48.3 µM); with Acinetobacter baumannii (ATCCBAA747, isolate ATCC BAA-747), 0.5 µg/mL (≈ 1.51 µM); with Acinetobacter baumannii (ATCCBAA1605, isolate ATCC BAA-1605) it was greater than 32 µg/mL; with Acinetobacter baumannii (ATCCBAA1710, isolate ATCC BAA-1710) it was 32 µg/mL (≈ 96.6 µM). Also, the MIC was greater than 32 µg/mL in the data set with Acinetobacter baumannii (ATCCBAA1791, isolate ATCC BAA-1791); greater than 32 µg/mL in the data set on Acinetobacter baumannii (ATCCBAA1795, isolate ATCC BAA-1795); 4 to 8 µg/mL (≈ 12.1 to 24.1 µM) in the data set on Acinetobacter baumannii (ATCCBAA1878, isolate ATCC BAA-1878); 0.125 to 0.25 µg/mL (≈ 0.377 to 0.754 µM) in the data set with Acinetobacter baumannii (CIP105742, isolate CIP 105742); greater than 32 µg/mL in the data set with Acinetobacter baumannii (CIP107292, isolate CIP 107292); greater than 32 µg/mL in the data set with Acinetobacter baumannii (NCTC13301, isolate NCTC13301). The MIC in the data set on Acinetobacter baumannii (isolate BM4454) was 32 µg/mL (≈ 96.6 µM); in the data set with Acinetobacter baumannii (isolate G478 (AYE)), greater than 32 µg/mL; in the data set on Acinetobacter baumannii (isolate R831), 8 µg/mL (≈ 24.1 µM); with Acinetobacter baumannii (isolate R835), 32 µg/mL (≈ 96.6 µM); against Klebsiella pneumoniae (NCTC13439, isolate NCTC13439), 16 µg/mL (≈ 48.3 µM); against Klebsiella pneumoniae (NCTC13442, isolate NCTC13442) it was 4 µg/mL (≈ 12.1 µM). Also, the MIC with Pseudomonas aeruginosa (ATCCBAA2114, isolate ATCC BAA-2114) turned out to be 4 µg/mL (≈ 12.1 µM); with Pseudomonas aeruginosa (CIP105381, isolate CIP 105381), 0.5 µg/mL (≈ 1.51 µM); with Pseudomonas aeruginosa (PAO1, isolate PAO1), 1 µg/mL (≈ 3.02 µM); in the data set with Pseudomonas aeruginosa (isolate BOR 05), 16 µg/mL (≈ 48.3 µM); in the data set on Pseudomonas aeruginosa (isolate CAE 02), 4 µg/mL (≈ 12.1 µM); in the data set with Pseudomonas aeruginosa (isolate CHA), 0.5 µg/mL (≈ 1.51 µM). Moreover, the MIC in the data set with Pseudomonas aeruginosa (isolate R2255) is 0.5 µg/mL (≈ 1.51 µM); in the data set with Pseudomonas aeruginosa (isolate ROU 01) it was 16 µg/mL (≈ 48.3 µM); in the data set on Pseudomonas aeruginosa (isolate SDE 05), 0.5 µg/mL (≈ 1.51 µM); in the data set with Escherichia coli, 0.063 to 0.125 µg/mL (≈ 0.19 to 0.377 µM). Further, in data set [1], the “Δlog CFU/g in thigh muscle” value is “–4.06 log CFU/g”.

For `N=C(N)NCCC[C@H](NC(=O)[C@H]1NC(=O)[C@H](CO)NC(=O)[C@H]2NC(=O)[C@H](CCC(N)=O)NC(=O)[C@@H](N)Cc3c[nH]c4c(cccc34)O[C@@H]2c2c[nH]c3cc(ccc23)[C@@H]1CCCN)C(=O)N[C@@H](Cc1c[nH]c2ccccc12)C(=O)O` [Darobactin D69], the “MIC P. aeruginosa” value in data set [2] was 1 µg/mL (≈ 0.919 µM). The “MIC A. baumannii” value in data set [3] is 0.5 µg/mL (≈ 0.459 µM). Further, in data set [4], the “MIC E. coli” value was 1 µg/mL (≈ 0.919 µM). Moreover, the “clearance of A. baumannii infection within zebrafish embryos” value in data set [5] was “completely cleared”. In addition, the MIC was 1 µg/mL (≈ 0.919 µM) in data set [6] (ATCC17978, GFP-tagged A. baumannii ATCC17978) and 2 µg/mL (≈ 1.84 µM) in [6] (ATCC17978, WT A. baumannii ATCC17978).

With `CNC(C)C1CCC(N)C(OC2C(N)CC(N)C(OC3OCC(C)(O)C(NC)C3O)C2O)O1` (stereo not shown) [Gentamicin, gentamicin], the “bacterial burden in urine, bladder, kidney” value with Escherichia coli C175-94 was “reduction of bacterial burden below stasis level in all tissues”. The MIC in data set [7] (ATCC25922, E. coli ATCC25922) is 0.5 to 1 µg/mL (≈ 1.05 to 2.09 µM); in [7] (E. coli 50639799), 16 to 32 µg/mL (≈ 33.5 to 67 µM); in data set [7] (E. coli C175-94), 2 µg/mL (≈ 4.19 µM); in data set [7] (E. coli DSA443), greater than 64 µg/mL; in data set [7] (E. coli EC 106-09 (ESBL)), 1 to 2 µg/mL (≈ 2.09 to 4.19 µM).

Turning to `C[C@@H](O)[C@H]1C(=O)N2C(C(=O)O)=C(S[C@@H]3CN[C@H](C(=O)N(C)C)C3)[C@H](C)[C@H]12` [MER, Meropenem], in the data set on Escherichia coli 106-09, the “Δlog CFU/mL Blood compared to SOT” value is recorded as “–2.98 log CFU/mL” and the “Δlog CFU/mL PF compared to SOT” value was “–4.33 log CFU/mL”.
